Biological target: T1, SMARCA2 (Homo sapiens, UniProt P51531)
T1 construct: endogenous in cells; host or cells: HT1080 (CRISPR HiBiT knock-in clone, generated in house)
Assay: SMARCA2 HiBiT degradation assay (cellular)
Assay type: cell-based
Settings: table head names A549; for DC50: 6 h incubation, HiBiT-tagged SMARCA2, luminescence read-out, read-out: HiBit A549 SMARCA2 IP (nM) 6 h; for Emax: A549, 6 h incubation, Emax = amount of residual protein remaining in the cell following compound treatment

T1 sequence (P51531 whole entry): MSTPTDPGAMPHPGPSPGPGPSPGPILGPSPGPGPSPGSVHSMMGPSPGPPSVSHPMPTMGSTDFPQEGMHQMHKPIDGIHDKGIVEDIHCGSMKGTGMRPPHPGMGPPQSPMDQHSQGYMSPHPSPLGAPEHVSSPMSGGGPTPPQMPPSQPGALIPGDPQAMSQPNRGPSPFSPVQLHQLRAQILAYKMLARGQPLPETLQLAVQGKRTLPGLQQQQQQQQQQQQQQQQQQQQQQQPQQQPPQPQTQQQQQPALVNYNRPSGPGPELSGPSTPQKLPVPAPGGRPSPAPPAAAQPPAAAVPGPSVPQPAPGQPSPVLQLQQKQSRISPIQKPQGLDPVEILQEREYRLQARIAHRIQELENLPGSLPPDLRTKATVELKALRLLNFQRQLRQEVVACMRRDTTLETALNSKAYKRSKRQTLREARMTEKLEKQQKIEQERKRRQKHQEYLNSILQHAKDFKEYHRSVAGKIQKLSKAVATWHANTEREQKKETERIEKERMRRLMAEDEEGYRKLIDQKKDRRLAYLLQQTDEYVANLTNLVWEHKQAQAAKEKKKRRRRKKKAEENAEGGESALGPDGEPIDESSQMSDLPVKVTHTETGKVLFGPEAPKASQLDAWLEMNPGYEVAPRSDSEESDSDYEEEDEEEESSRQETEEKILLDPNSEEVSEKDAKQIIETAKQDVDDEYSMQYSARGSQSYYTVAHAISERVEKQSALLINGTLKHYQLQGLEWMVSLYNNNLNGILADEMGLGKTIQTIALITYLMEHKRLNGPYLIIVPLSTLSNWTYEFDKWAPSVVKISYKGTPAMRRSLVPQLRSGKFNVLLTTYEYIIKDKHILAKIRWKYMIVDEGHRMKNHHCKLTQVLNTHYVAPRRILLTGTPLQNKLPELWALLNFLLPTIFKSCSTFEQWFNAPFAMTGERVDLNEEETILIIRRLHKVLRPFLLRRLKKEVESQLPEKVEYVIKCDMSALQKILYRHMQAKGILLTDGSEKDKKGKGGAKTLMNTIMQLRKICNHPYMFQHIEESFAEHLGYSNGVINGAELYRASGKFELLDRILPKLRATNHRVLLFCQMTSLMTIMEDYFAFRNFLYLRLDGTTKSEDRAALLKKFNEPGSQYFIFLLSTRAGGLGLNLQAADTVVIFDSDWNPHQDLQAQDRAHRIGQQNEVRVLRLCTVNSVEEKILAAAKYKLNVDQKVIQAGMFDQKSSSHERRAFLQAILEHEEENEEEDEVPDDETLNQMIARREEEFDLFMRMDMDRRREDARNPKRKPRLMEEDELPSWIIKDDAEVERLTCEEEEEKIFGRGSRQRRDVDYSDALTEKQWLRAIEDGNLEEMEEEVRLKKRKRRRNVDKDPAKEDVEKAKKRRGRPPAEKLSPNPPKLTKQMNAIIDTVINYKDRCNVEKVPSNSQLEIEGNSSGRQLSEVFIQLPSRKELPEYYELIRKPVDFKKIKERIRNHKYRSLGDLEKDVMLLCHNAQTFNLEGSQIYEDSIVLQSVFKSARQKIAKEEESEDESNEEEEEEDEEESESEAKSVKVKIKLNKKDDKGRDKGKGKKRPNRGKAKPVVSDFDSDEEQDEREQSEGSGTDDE

| SMILES | DC50 | Emax |
| --- | --- | --- |
| Nc1nnc(-c2ccccc2O)cc1OC1CCCN(c2ccc(N3CCN(C(=O)CCCCCCCCn4cc(CNc5cccc6c5C(=O)N(C5CCC(=O)NC5=O)C6)nn4)CC3)cc2)C1 (centres unmarked) [Example 111, 3-[7-[[1-[9-[4-[4-[3-[3-amino-6-(2-hydroxyphenyl)pyridazin-4-yl]oxy-1-piperidyl]phenyl]piperazin-1-yl]-9-oxo-nonyl]triazol-4-yl]methylamino]-1-oxo-isoindolin-2-yl]piperidine-2,6-dione] | 177 nM | 60% |
| Nc1nnc(-c2ccccc2O)cc1N1CCC(C(=O)N2CC3(CCN(C(=O)CC4CCN(c5ccc6c(c5)C(=O)N(C5CCC(=O)NC5=O)C6=O)CC4)CC3)C2)(c2ccccc2)CC1 (centres unmarked) [Example 164, 5-(4-(2-(2-(1-(3-amino-6-(2-hydroxyphenyl)pyridazin-4-yl)-4-phenylpiperidine-4-carbonyl)-2,7-diazaspiro[3.5]nonan-7-yl)-2-oxoethyl)piperidin-1-yl)-2-(2,6-dioxopiperidin-3-yl)isoindoline-1,3-dione] | 42 nM | 50% |
| Nc1nnc(-c2ccccc2O)cc1N1CC2CCC(C1)N2c1cccc(CN2CCC(C(=O)N3CCN(c4ccc5c(c4)C(=O)N(C4CCC(=O)NC4=O)C5=O)CC3)CC2)c1 (racemic) [Example 95, rac-5-[4-[1-[[3-[3-[3-amino-6-(2-hydroxyphenyl)pyridazin-4-yl]-3,8-diazabicyclo[3.2.1]octan-8-yl]phenyl]methyl]piperidine-4-carbonyl]piperazin-1-yl]-2-(2,6-dioxo-3-piperidyl)isoindoline-1,3-dione] | 13 nM | 25% |
| Nc1nnc(-c2ccccc2O)cc1O[C@H]1CCCN(c2ccc(N3CCN(CC4CCN(C(=O)CCCCn5cc(COc6cccc7c6C(=O)N(C6CCC(=O)NC6=O)C7=O)nn5)CC4)CC3)cc2)C1 (mixture of isomers) [Example 140, 2-(2,6-dioxo-3-piperidyl)-4-[[1-[5-oxo-5-[4-[[4-[4-[rac-(3S)-3-[3-amino-6-(2-hydroxyphenyl)pyridazin-4-yl]oxy-1-piperidyl]phenyl]piperazin-1-yl]methyl]-1-piperidyl]pentyl]triazol-4-yl]methoxy]isoindoline-1,3-dione] | 275 nM | 42% |
| Nc1nnc(-c2ccccc2O)cc1N1CC(Oc2cccc(CN3CCN(C(=O)CN4CCC(c5ccc(NC6CCC(=O)NC6=O)cc5)CC4)CC3)c2)C1 (racemic) [Example 156, rac-3-[4-[1-[2-[4-[[3-[1-[3-amino-6-(2-hydroxyphenyl)pyridazin-4-yl]azetidin-3-yl]oxyphenyl]methyl]piperazin-1-yl]-2-oxo-ethyl]-4-piperidyl]anilino]piperidine-2,6-dione] | 3 nM | 17% |
| Nc1nnc(-c2ccccc2O)cc1N1CC2CCC(C1)N2c1cccc(CN2CCC(C(=O)N3CCN(c4ccc(OC5CCC(=O)NC5=O)cc4)CC3)CC2)c1 (racemic) [Example 94, rac-3-[4-[4-[1-[[3-[3-[3-amino-6-(2-hydroxyphenyl)pyridazin-4-yl]-3,8-diazabicyclo[3.2.1]octan-8-yl]phenyl]methyl]piperidine-4-carbonyl]piperazin-1-yl]phenoxy]piperidine-2,6-dione] | 18 nM | 48% |
| Nc1nnc(-c2ccccc2O)cc1N1CCC(NC(=O)CC2CCN(C(=O)CCCN3CCC(c4ccc(NC5CCC(=O)NC5=O)cc4)CC3)CC2)(c2ccccc2)CC1 (centres unmarked) [Example 185, N-[1-[3-amino-6-(2-hydroxyphenyl)pyridazin-4-yl]-4-phenyl-4-piperidyl]-2-[1-[4-[4-[4-[(2,6-dioxo-3-piperidyl)amino]phenyl]-1-piperidyl]butanoyl]-4-piperidyl]acetamide] | 241 nM | 62% |
| Nc1nnc(-c2ccccc2O)cc1N1CC2CCC(C1)N2c1cccc(CN2CCN(CCCOC3CCN(c4ccc5c(c4)C(=O)N(C4CCC(=O)NC4=O)C5=O)CC3)CC2)c1 (racemic) [Example 56, rac-5-[4-[3-[4-[[3-[3-[3-Amino-6-(2-hydroxyphenyl)pyridazin-4-yl]-3,8-diazabicyclo[3.2.1]octan-8-yl]phenyl]methyl]piperazin-1-yl]propoxy]-1-piperidyl]-2-(2,6-dioxo-3-piperidyl)isoindoline-1,3-dione] | 10 nM | 36% |
| Nc1nnc(-c2ccccc2O)cc1N1CCC(C(=O)N2CC3(CCN(CCOC4CCN(c5ccc6c(c5)C(=O)N(C5CCC(=O)NC5=O)C6=O)CC4)C3)C2)(c2ccccc2)CC1 (centres unmarked) [Example 192, 5-[4-[2-[2-[1-[3-amino-6-(2-hydroxyphenyl)pyridazin-4-yl]-4-phenyl-piperidine-4-carbonyl]-2,7-diazaspiro[3.4]octan-7-yl]ethoxy]-1-piperidyl]-2-(2,6-dioxo-3-piperidyl)isoindoline-1,3-dione] | 57 nM | 34% |
| Nc1nnc(-c2cc(F)ccc2O)cc1N1C2CCC1CN(c1cccc(OCCN3CCN(C(=O)C4CCN(c5ccc6c(c5)C(=O)N(C5CCC(=O)NC5=O)C6=O)CC4)CC3)c1)C2 (centres unmarked) [Example 160, 5-[4-[4-[2-[3-[8-[3-amino-6-(5-fluoro-2-hydroxy-phenyl)pyridazin-4-yl]-3,8-diazabicyclo[3.2.1]octan-3-yl]phenoxy]ethyl]piperazine-1-carbonyl]-1-piperidyl]-2-(2,6-dioxo-3-piperidyl)isoindoline-1,3-dione] | 144 nM | 74% |
| Nc1nnc(-c2ccccc2O)cc1N1CCC(C(=O)N2CCC3(CC2)CN(C(=O)CN2CCN(c4ccc(NC5CCC(=O)NC5=O)cc4)CC2)CCO3)(c2ccccc2)CC1 (centres unmarked) [Example 173, 3-((4-(4-(2-(9-(1-(3-amino-6-(2-hydroxyphenyl)pyridazin-4-yl)-4-phenylpiperidine-4-carbonyl)-1-oxa-4,9-diazaspiro[5.5]undecan-4-yl)-2-oxoethyl)piperazin-1-yl)phenyl)amino)piperidine-2,6-dione] | 110 nM | 72% |
| Nc1nnc(-c2ccccc2O)cc1N1CCC(C(=O)N2CCC3(CC2)CN(C(=O)COc2ccc4c(c2)C(=O)N(C2CCC(=O)NC2=O)C4=O)CCO3)(c2ccccc2)CC1 (centres unmarked) [Example 166, 5-(2-(9-(1-(3-amino-6-(2-hydroxyphenyl)pyridazin-4-yl)-4-phenylpiperidine-4-carbonyl)-1-oxa-4,9-diazaspiro[5.5]undecan-4-yl)-2-oxoethoxy)-2-(2,6-dioxopiperidin-3-yl)isoindoline-1,3-dione] | 607 nM | 53% |
| Nc1nnc(-c2ccccc2O)cc1N1CC2CCC(C1)N2c1cccc(OCCN2CCN(CCC3CCN(c4ccc5c(c4)C(=O)N(C4CCC(=O)NC4=O)C5=O)CC3)CC2)c1 (racemic) [Example 34, rac-5-[4-[2-[4-[2-[3-[3-[3-amino-6-(2-hydroxyphenyl)pyridazin-4-yl]-3,8-diazabicyclo[3.2.1]octan-8-yl]phenoxy]ethyl]piperazin-1-yl]ethyl]-1-piperidyl]-2-(2,6-dioxo-3-piperidyl)isoindoline-1,3-dione] | 26 nM | 24% |
| Nc1nnc(-c2ccccc2O)cc1N1CCN(c2ccccc2)C(C(=O)NC2CCN(C(=O)C3CCN(c4ccc5c(c4)C(=O)N(C4CCC(=O)NC4=O)C5=O)CC3)CC2)C1 (centres unmarked) [Example 87, 4-(3-amino-6-(2-hydroxyphenyl)pyridazin-4-yl)-N-(1-(1-(2-(2,6-dioxopiperidin-3-yl)-1,3-dioxoisoindolin-5-yl)piperidine-4-carbonyl)piperidin-4-yl)-1-phenylpiperazine-2-carboxamide] | 81 nM | 48% |
| Nc1nnc(-c2ccccc2O)cc1OC1CCCN(c2ccc(N3CCN(CCCCCCCCCn4cc(CCNc5cccc6c5C(=O)N(C5CCC(=O)NC5=O)C6=O)nn4)CC3)cc2)C1 (centres unmarked) [Example 110, 4-[2-[1-[9-[4-[4-[3-[3-amino-6-(2-hydroxyphenyl)pyridazin-4-yl]oxy-1-piperidyl]phenyl]piperazin-1-yl]nonyl]triazol-4-yl]ethylamino]-2-(2,6-dioxo-3-piperidyl)isoindoline-1,3-dione] | 276 nM | 52% |
| Nc1nnc(-c2ccccc2O)cc1N1CC2CCC(C1)N2c1ccc(C(F)(F)F)c(C(=O)N2CCN(C(=O)C3CCN(c4ccc5c(c4)C(=O)N(C4CCC(=O)NC4=O)C5=O)CC3)CC2)c1 (racemic) [Example 107, rac-5-[4-[4-[5-[3-[3-amino-6-(2-hydroxyphenyl)pyridazin-4-yl]-3,8-diazabicyclo[3.2.1]octan-8-yl]-2-(trifluoromethyl)benzoyl]piperazine-1-carbonyl]-1-piperidyl]-2-(2,6-dioxo-3-piperidyl)isoindoline-1,3-dione] | 193 nM | 51% |
| Nc1nnc(-c2ccccc2O)cc1N1CCN(c2cccc(OCCN3CCN(C(=O)C4CCN(c5ccc6c(c5)C(=O)N(C5CCC(=O)NC5=O)C6=O)CC4)CC3)c2)C2(CCC2)C1 (centres unmarked) [Example 197, 5-[4-[4-[2-[3-[8-[3-amino-6-(2-hydroxyphenyl)pyridazin-4-yl]-5,8-diazaspiro[3.5]nonan-5-yl]phenoxy]ethyl]piperazine-1-carbonyl]-1-piperidyl]-2-(2,6-dioxo-3-piperidyl)isoindoline-1,3-dione] | 46 nM | 30% |
| Nc1nnc(-c2ccccc2O)cc1N1CCC(CNC(=O)CCCN2CCC(c3ccc(OC4CCC(=O)NC4=O)cc3)CC2)(c2ccccc2)CC1 (centres unmarked) [Example 78, N-((1-(3-amino-6-(2-hydroxyphenyl)pyridazin-4-yl)-4-phenylpiperidin-4-yl)methyl)-4-(4-(4-((2,6-dioxopiperidin-3-yl)oxy)phenyl)piperidin-1-yl)butanamide] | 23 nM | 35% |
| CCC(Nc1cccc2c1C(=O)N(C1CCC(=O)NC1=O)C2=O)c1cn(CCCCCCCCCN2CCN(c3ccc(N4CCC[C@H](Oc5cc(-c6ccccc6O)nnc5N)C4)cc3)CC2)nn1 (mixture of isomers) [Example 203, 2-(2,6-dioxo-3-piperidyl)-4-[1-[1-[9-[4-[4-[rac-(3S)-3-[3-amino-6-(2-hydroxyphenyl)pyridazin-4-yl]oxy-1-piperidyl]phenyl]piperazin-1-yl]nonyl]triazol-4-yl]propylamino]isoindoline-1,3-dione] | 216 nM | 28% |

— patent publication US20230024096A1, “BIFUNCTIONAL COMPOUNDS FOR THE TREATMENT OF CANCER” (Hoffmann-La Roche Inc., priority 2019, published 2023)
